Experiment [1] concerns the target T1, Serine/threonine-protein kinase Nek2 (Homo sapiens) (UniProt P51955).
T1 sequence (whole entry): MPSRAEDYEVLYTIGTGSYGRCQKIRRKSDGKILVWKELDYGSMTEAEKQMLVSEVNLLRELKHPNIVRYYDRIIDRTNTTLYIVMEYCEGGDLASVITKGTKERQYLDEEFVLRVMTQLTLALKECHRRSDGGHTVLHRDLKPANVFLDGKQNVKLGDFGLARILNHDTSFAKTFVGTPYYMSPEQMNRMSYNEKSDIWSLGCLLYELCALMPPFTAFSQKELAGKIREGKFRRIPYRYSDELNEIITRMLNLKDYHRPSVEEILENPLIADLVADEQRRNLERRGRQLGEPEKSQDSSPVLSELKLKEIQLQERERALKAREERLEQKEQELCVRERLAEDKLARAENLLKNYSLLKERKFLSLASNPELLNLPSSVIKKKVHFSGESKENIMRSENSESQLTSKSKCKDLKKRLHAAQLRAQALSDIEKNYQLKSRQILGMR
In words: Selectivity interaction (Kinase panel (DSF assay)) EUB0001558a NEK2.

The target of experiment [2] is T2, Receptor-interacting serine/threonine-protein kinase 1 (Homo sapiens) (UniProt Q13546).
T2 sequence (whole entry): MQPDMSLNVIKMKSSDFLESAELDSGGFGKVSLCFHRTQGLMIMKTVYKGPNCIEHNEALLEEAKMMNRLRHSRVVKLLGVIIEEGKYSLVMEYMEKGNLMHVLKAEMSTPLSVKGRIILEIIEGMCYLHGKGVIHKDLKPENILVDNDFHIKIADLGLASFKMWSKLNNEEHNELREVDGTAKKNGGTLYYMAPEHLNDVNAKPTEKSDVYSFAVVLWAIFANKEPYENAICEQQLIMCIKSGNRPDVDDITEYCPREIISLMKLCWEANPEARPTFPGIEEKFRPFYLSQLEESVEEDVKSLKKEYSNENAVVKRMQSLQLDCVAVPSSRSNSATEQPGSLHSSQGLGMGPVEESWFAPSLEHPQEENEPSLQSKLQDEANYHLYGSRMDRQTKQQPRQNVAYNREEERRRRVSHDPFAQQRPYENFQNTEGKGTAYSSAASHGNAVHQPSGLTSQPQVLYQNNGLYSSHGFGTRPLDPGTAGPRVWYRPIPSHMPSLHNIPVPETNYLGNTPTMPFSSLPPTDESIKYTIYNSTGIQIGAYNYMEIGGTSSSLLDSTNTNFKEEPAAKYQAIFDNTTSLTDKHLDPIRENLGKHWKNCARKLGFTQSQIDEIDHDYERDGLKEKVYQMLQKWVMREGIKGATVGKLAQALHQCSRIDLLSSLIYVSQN
In words: Selectivity interaction (Ambit KINOMEscan and KiNATiv profiling in Jurkat cells) EUB0000090b RIPK1. Format: cell-based. The note with it: at 1 µM.

Experiment [3] has as its target T3, Serine/threonine-protein kinase tousled-like 1 (Homo sapiens) (UniProt Q9UKI8).
T3 sequence (whole entry): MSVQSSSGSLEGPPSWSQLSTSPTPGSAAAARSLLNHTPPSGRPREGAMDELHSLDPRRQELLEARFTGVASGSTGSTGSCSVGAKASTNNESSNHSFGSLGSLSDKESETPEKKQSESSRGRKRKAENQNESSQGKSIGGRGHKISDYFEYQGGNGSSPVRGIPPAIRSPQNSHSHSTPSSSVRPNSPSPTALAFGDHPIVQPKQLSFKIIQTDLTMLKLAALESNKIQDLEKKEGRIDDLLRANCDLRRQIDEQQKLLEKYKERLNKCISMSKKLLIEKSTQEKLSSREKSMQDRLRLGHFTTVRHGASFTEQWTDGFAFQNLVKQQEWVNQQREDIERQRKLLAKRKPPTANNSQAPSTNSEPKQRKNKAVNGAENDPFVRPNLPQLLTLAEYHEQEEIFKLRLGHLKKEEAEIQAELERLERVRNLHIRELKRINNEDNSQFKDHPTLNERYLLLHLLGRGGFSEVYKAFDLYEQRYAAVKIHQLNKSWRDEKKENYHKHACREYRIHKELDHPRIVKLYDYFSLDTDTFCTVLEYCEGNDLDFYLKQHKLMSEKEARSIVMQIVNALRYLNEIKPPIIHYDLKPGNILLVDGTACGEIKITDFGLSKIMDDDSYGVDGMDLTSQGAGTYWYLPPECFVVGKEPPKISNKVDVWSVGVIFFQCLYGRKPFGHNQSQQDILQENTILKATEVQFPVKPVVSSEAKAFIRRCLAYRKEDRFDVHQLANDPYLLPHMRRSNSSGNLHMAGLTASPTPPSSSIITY
In words: Selectivity interaction (ActivX KiNativ screen (kinase selectivity in THP-1 cell lysates)) EUB0000639a TLK1. The class given is subcellular. The note with it: lysate, at 0.2 µM.

Experiment [4] has as its target T4, Ankyrin repeat and protein kinase domain-containing protein 1 (Homo sapiens) (UniProt Q8NFD2).
T4 sequence (whole entry): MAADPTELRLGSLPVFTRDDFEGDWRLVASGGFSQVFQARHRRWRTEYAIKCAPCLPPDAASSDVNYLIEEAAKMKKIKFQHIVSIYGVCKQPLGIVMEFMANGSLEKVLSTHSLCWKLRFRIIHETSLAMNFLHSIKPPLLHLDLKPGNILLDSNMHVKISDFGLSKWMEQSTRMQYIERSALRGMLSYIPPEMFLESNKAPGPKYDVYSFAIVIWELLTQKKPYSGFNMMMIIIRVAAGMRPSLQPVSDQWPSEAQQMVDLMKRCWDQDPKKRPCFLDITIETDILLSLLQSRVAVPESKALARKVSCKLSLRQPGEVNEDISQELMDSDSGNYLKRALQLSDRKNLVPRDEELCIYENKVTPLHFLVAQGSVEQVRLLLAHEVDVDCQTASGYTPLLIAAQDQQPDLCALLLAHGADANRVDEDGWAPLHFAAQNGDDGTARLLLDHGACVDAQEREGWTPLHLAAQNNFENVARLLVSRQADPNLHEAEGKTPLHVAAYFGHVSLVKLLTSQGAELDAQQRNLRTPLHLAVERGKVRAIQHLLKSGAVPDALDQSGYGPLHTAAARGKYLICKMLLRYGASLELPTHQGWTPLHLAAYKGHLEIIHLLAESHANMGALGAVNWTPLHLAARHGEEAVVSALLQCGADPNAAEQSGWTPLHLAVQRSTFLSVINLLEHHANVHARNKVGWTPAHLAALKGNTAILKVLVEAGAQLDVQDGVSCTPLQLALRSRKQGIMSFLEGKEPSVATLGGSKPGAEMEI
The following applies: at 10 µM.

For experiment [5], the target named is Serine/threonine-protein kinase 38 (Homo sapiens) (UniProt Q15208). In words: Selectivity interaction (ActivX KiNativ screen (ex vivo kinase selectivity in human PBMCs)) EUB0001619a STK38. The class given is cell-based. The note with it: PBMC, at 1 µM.
Serine/threonine-protein kinase 38 (Homo sapiens), sequence (Q15208 2-465 limits assumed): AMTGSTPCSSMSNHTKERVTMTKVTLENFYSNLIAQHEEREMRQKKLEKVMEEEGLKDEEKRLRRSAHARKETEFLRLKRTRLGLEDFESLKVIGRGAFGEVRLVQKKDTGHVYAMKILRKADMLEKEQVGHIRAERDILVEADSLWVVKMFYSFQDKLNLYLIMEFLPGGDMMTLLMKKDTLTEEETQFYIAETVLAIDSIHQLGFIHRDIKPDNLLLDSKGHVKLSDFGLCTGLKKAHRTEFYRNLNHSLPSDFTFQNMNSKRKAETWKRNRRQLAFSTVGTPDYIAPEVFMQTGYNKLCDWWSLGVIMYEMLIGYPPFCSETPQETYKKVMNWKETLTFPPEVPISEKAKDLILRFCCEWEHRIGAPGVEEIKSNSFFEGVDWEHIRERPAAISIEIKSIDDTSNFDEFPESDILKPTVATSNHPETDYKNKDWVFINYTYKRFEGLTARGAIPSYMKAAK
Experiment [6] addresses Fibroblast growth factor receptor 2 (Homo sapiens) (UniProt P21802). In words: Selectivity interaction (KinomeScan (DiscoverX)) EUB0001619a FGFR2. The following applies: at 1 µM.

Fibroblast growth factor receptor 2 (Homo sapiens), sequence (P21802 22-821 limits assumed): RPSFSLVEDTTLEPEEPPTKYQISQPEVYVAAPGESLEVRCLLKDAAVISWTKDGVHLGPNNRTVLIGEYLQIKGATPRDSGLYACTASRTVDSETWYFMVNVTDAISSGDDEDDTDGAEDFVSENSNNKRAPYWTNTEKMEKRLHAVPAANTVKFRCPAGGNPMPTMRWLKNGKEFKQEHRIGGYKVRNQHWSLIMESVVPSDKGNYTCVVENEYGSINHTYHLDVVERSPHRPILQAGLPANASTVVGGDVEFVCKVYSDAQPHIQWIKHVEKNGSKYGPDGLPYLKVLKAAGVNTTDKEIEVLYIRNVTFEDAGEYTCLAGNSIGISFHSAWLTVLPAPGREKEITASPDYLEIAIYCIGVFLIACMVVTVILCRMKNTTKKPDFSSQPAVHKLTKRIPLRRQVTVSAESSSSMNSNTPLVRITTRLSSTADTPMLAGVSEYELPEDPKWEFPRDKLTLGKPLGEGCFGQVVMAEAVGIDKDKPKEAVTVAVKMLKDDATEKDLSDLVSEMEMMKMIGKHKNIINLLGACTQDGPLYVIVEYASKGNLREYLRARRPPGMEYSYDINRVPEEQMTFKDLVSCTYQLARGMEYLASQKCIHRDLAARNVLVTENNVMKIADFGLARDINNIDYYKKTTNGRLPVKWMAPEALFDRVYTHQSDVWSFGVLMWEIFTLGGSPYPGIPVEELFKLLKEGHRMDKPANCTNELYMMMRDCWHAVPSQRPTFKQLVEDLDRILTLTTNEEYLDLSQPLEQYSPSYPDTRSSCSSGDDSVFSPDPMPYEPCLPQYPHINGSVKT

Regarding `CC(C)(O)[C@H](F)CN1Cc2cc(NC(=O)c3cnn4cccnc34)c(N3CCOCC3)cc2C1=O`, the dTM in experiment [1] came to 0.4 K.

Take `CN(C)C/C=C/C(=O)Nc1ccc(C(=O)N2CCCC(Nc3ncc(Cl)c(-c4c[nH]c5ccccc45)n3)C2)cc1` (stereo unspecified): the % of control in experiment [2] stood at 94%.

`CC[C@@H]1[C@H](F)C(=O)N[C@@H]1COc1nccc2cc(C(N)=O)c(OC)cc12` [ZIMLOVISERTIB]: the % of inhibition in experiment [3] is 9.2%.

In experiment [4], `COCC(=O)NC/C=C/c1ccc2ncnc(Nc3ccc(Oc4ccc(C)nc4)c(C)c3)c2c1` [CP-724714] registered a % of control of 60%.

As for `N#Cc1cccc(-c2c[nH]c3ncnc(N4CCOCC4)c23)c1`, in experiment [5], the % of inhibition is 3%. The compound also gave a % of control in experiment [6] of 100%.

(Values after ChEMBL document CHEMBL5465560, “Selectivity Literature for EUbOPEN Chemogenomic Library” (2024).)
